# Measurements reported in patent US20240058371A1, “MOLECULE FOR INDUCING SPONTANEOUS CALCIFICATION OF TUMOR CELLS AND USE THEREOF” (ZHEJIANG UNIVERSITY, priority 2020, published 2024).
# “Also recorded” adds a separate entry of the source.
# Assays:
# A549-Luci cells [1] = experiment: Mouse model of metastatic lung tumors, small animal in vivo imaging; parameters: species or system nude mice; settings: 200 mg/kg tail vein, compared with the control group
# Method: To construct a mouse model of metastatic lung tumors, 3×10^6 A549-Luci cells
# were injected into the tail vein of nude mice, followed by injection of targeting peptide (CiP; 200 mg/kg) through the tail vein. Control mice were injected with PBS, 4 mg/kg adriamycin (Dox), and a control peptide ([…], targeting peptide, TP) at the same concentration as the CiP peptide; this experiment investigated whether CiP targeting peptide-induced calcification of A549 cells could inhibit lung cancer growth and metastasis. Tumorigenesis was monitored using a small animal in vivo imaging system.
# The above experiments were repeated using the E6[…], E10[…], E16[…], and E30[…] peptides.
# [2] = system: human non-small cell lung cancer cells (lines A549, H460, and H1299); experiment: Flow cytometry of cell surface-bound FITC-modified targeting peptide, lung cancer cells; format: binding; settings: 100 μg/mL FITC-modified peptide, 30 min, Ca2+ up to 2.75 mM, phosphate up to 1.61 mM
# Method: (§1) The free amino groups of aspartic acid residues in the targeting peptide were reacted with fluorescein isothiocyanate (FITC) in phosphate-buffered saline (PBS) solution for 12 hours, then dialyzed in dialysis bags for 5 days and lyophilized to obtain FITC-modified targeting peptide molecules.
# [3] = system: Beas-2b human lung epithelial cells, and human umbilical vein endothelial cells (HUVECs); experiment: Flow cytometry of cell surface-bound FITC-modified targeting peptide, normal cells; format: binding; settings: 100 μg/mL FITC-modified peptide, 30 min
# Method: as §1
# [4] = system: A549 human non-small cell lung cancer cells; experiment: Electron microscopy / EDX elemental scan of cell surface calcification, lung cancer cells; format: cell-based; settings: 1 mg/mL, 48 hours, Ca2+ up to 2.75 mM, phosphate up to 1.61 mM
# Description: (§2) Subsequently, they were subjected to electron microscopy to detect calcification on the cell surface.
# lung epithelial cells = experiment: Electron microscopy / EDX elemental scan of cell surface calcification, lung epithelial cells; format: cell-based, human
# Description: as §2
# [5] = system: human non-small cell lung cancer cells (lines A549, H460, and H1299); experiment: CCK8 assay, lung cancer cells; format: cell-based; parameters: dose or concentration left out as unconfirmed; settings: 48 hours
# Method: CCK8 assays were performed to determine the killing effect of targeting peptide-induced calcification of lung cancer cells.
# [6] = system: Beas-2b human lung epithelial cells; experiment: CCK8 assay, normal lung epithelial cells; format: cell-based; parameters: dose or concentration left out as unconfirmed; settings: 48 hours
# A549-Luci cells [7] = experiment: Ultrasound and CT imaging of calcified lung cancer, mouse model of pulmonary metastatic tumors; format: in vivo, nude mice; settings: 200 mg/kg intravenous, 4 weeks after model establishment
# Method: (§3) Fifty micrograms of SodA peptide ([…]) and 0.25 mL of incomplete Freund's adjuvant were mixed and subcutaneously injected into the backs of C57 mice. Two weeks later, 50 μg of SodA peptide and 6000 agarose 4B beads dissolved in 0.2 mL PBS were covalently coupled and injected into the tail vein of the same C57 mice to construct a mouse model of pulmonary nodules. Additionally, 3×10^6 A549-Luci cells were injected into the tail vein of nude mice to construct a mouse model of pulmonary metastatic tumors. Some mice underwent intravenous injection of the targeting peptide (200 mg/kg) to induce calcification; simultaneous ultrasound and CT scans of normal lung cancer, calcified lung cancer, and pulmonary nodules were performed at 4 weeks after model establishment.
# pulmonary nodules = experiment: Ultrasound and CT imaging, mouse model of pulmonary nodules; format: in vivo, C57 mice; settings: 200 mg/kg intravenous, 4 weeks after model establishment
# Method: as §3
# [8] = systemic FA administration; cited from earlier work
compound,measurement,setting,value
E16TDSILRSYDWTY,growth (and metastasis) of A549 lung cancer cells in vivo,A549-Luci cells [1],significantly inhibited the growth of A549 cells
E30TDSILRSYDWTY,growth (and metastasis) of A549 lung cancer cells in vivo,A549-Luci cells [1],significantly inhibited the growth of A549 cells
E24 TDSILRSYDWTY [targeting peptide],binding of targeting peptide to cell surface,[2],selectively bound to the surface of lung cancer cells
same,binding of targeting peptide to cell surface,[3],did not bind to normal epithelial cells; also recorded: weakly bound to normal cells
same,calcification on the cell surface (EDX calcium and phosphorus peaks),[4],significantly increased calcification peaks
same,calcification on the cell surface (EDX calcium and phosphorus peaks),[4]; listed as CiP,significantly increased
same,calcification on the cell surface (EDX calcium and phosphorus),lung epithelial cells,without significantly affecting normal lung epithelial cells; also recorded: less deposition of calcium and phosphorus elements
same,proliferative activity / killing effect,[5],selectively inhibited the proliferative activities of various lung cancer cells
same,toxic effects on normal lung epithelial cells,[6],without significant toxic effects on normal lung epithelial cells
same,identification of calcified lung cancer on ultrasound,A549-Luci cells [7],evident as high-density calcified foci on ultrasound; also recorded: could be clearly identified on ultrasound
same,visualisation of calcified lung cancer on CT,A549-Luci cells [7],revealed a clear boundary on CT; also recorded: could be visualized on CT
same,identification of pulmonary nodules by imaging,pulmonary nodules,could not be clearly identified by imaging
same,growth (and metastasis) of A549 lung cancer cells in vivo,A549-Luci cells [1],effectively inhibited the growth and metastasis of lung cancer
same,growth (and metastasis) of A549 lung cancer cells in vivo,A549-Luci cells [1]; listed as CiP targeting peptide,significantly inhibited the growth of A549 cells
E6TDSILRSYDWTY,growth (and metastasis) of A549 lung cancer cells in vivo,A549-Luci cells [1],significantly inhibited the growth of A549 cells
"Nc1nc2ncc(CNc3ccc(C(=O)N[C@@H](CCC(=O)O)C(=O)O)cc3)nc2c(=O)[nH]1 [FA, folic acid]",body weight,[8],dramatically reduces body weight
same,survival time,[8],severely decreases survival time
same,tumor growth,[8],promotes tumor growth
E10TDSILRSYDWTY,growth (and metastasis) of A549 lung cancer cells in vivo,A549-Luci cells [1],significantly inhibited the growth of A549 cells
